Where two headings read alike, the source gives them in different places.
System: leukemia cells MV4-11
Test: Inhibitory activity on growth by MTS method
Assay type: cell-based
Settings: Homo sapiens
Description: 2. Test of Inhibitory Activities of Compound on Growth by MTS Method Experimental Principle:
MTS assay detects the inhibitory effect of the tested compound to the growth of leukemia cells MV (4:11). The principle is that succinate dehydrogenase in mitochondria in living cells can reduce exogenous thiazole blue to insoluble blue crystal Formazan.
• 1. MV4-11 cells in logarithmic growth phase were accurately counted at 16000 cells/mL, and the diluted cell solution was added to 96-well plates at 90 μL per well. • 2. Fresh medium was taken and sequentially added to a 96-well plate with cell fluid at 90 μL per well. • 3. […] 2 μL of the diluted compound was respectively added to a 96-well plate containing 98 μL of blank medium, and for DMSO group, 98 μL of blank medium was added into 2 μL of DMSO, and mixed for further use. • 5. The compound mixed with the medium was separately added to a 96-well plate in which cells were plated, in triplicate, 20 μL per well, and were mixed. The blank group was added with 200 μL of IMDM medium, and the DMSO group was added with 180 μL of the cell-containing medium in DMSO diluted with the medium. • 6. […]

[1] = 72 h, MV4-11, 3 days, read-out: MTS 3 D
[2] = 240 h, MV4-11, 10 days, read-out: MTS 10 D

IC50 [1] [µM]	IC50 [2] [µM]	Structure (SMILES)
2.21 ± 0.63	> 20	CC(C)(C)OC(=O)c1ccc(CN2CCC(F)(CNC3CC3c3ccc(Br)s3)CC2)cc1 (centres unmarked) [Example A101, Tert-Butyl 4-((4-(((2-(5-bromothien-2-yl))cyclopropyl)amino)methyl)-4-fluoropiperidin-1-yl)methyl)benz Oate]
2.59 ± 0.14	5.93 ± 0.35	O=C(OCC1CCNCC1)N1CCC(F)(CNC2CC2c2ccc(-c3ccc(C(F)(F)F)cc3)s2)CC1 (centres unmarked) [Example A110, Piperidin-4-ylmethyl 4-fluoro-4-(((2-(5-(4-(trifluoromethyl)phenyl)thiophen-2-yl)cyclopropyl)amino)methyl) piperidine-1-carboxylate]
> 20	10.2 ± 2.77	O=C(OCC1CCNCC1)N1CCC(F)(CNC2CC2c2ccc(-c3ccc(F)cc3)nc2)CC1 (centres unmarked) [Example A118, Piperidin-4-ylmethyl 4-fluoro-4-(((2-(6-(4-fluorophenyl)pyridin-3-yl)cyclopropyl)amino)methyl)piperidine-1-carbox ylate]
15.3 ± 0.78	7.84 ± 0.35	N#Cc1ccc(C#Cc2ccc(C3CC3NCC3(F)CCN(C(=O)OCC4CCNCC4)CC3)s2)cc1 (centres unmarked) [Example A114, Piperidin-4-ylmethyl 4-(((2-(5-((4-cyanophenyl)ethynyl)thiophen-2-yl)cyclopropyl)amino)methyl)-4-fluoropiperidine-1-carboxylate]
1.95 ± 0.6	8.35 ± 0.71	CC(C)(C)OC(=O)c1ccc(CN2CCC(F)(CNC3CC3c3ccc(-c4ccc(F)cc4)s3)CC2)cc1 (centres unmarked) [Example A105, Tert-butyl 4-((4-fluoro-4-(((2-(5-(4-fluorophenyl)thiophen-2-yl)cyclopropyl)amino)methyl)piperidin-1-yl)methyl)benzoate]
1.71 ± 0.22	9.99 ± 1.5	CC(C)(C)OC(=O)c1ccc(CN2CCC(F)(CNC3CC3c3ccc(-c4ccc(Cl)cc4)s3)CC2)cc1 (centres unmarked) [Example A106]
2.1 ± 0.12	4.7 ± 1.68	CC(C)(C)OC(=O)c1ccc(CN2CCC(F)(CNC3CC3c3ccc(-c4cccc5ccccc45)s3)CC2)cc1 (centres unmarked) [Example A109, tert-Butyl 4-((4-fluoro-4-(((2-(5-(naphthalen-1-yl)thiophen-2-yl)cyclopropyl)amino)methyl)piperidine-1-yl)methyl)benzoate]
> 20	> 20	COc1ccc(-c2ccc(C3CC3NCC3(F)CCN(C(=O)OCC4CCNCC4)CC3)cn2)cc1 (centres unmarked) [Example A112, Piperidin-4-ylmethyl 4-fluoro-4-(((2-(6-(4-methoxyphenyl)pyridin-3-yl)cyclopropyl)amino)methyl)piperidine-1-carboxylate]
0.75 ± 0.15	13 ± 1.9	CC(C)(C)OC(=O)c1ccc(CN2CCC(F)(CNC3CC3c3ccc(-c4ccc(C(F)(F)F)cc4)s3)CC2)cc1 (centres unmarked) [Example A107, Tert-butyl 4-((4-fluoro-4-(((2-(5-(4-(trifluoromethyl)phenyl)thiophen-2-yl)cyclopropyl)amino)methyl)piperidin-1-yl)methyl)benzoate]
2.64 ± 0.97	11.9 ± 2.04	CC(C)(C)OC(=O)c1ccc(CN2CCC(F)(CNC3CC3c3ccc(-c4ccccc4)s3)CC2)cc1 (centres unmarked) [Example A108, Tert-butyl 4-((4-fluoro-4-(((2-(5-phenylthiophen-2-yl)cyclopropyl)amino)methyl)piperidin-1-yl)methyl)benzoate]
> 20	19.9 ± 0.86	O=C(OCC1CCNCC1)N1CCC(F)(CNC2CC2c2ccc(Br)s2)CC1 (centres unmarked) [Example A111, Piperidin-4-ylmethyl 4-(((2-(5-bromothien-2-yl)cyclopropyl)amino)methyl)-4-fluoropiperidine-1-carboxylate]
15.4 ± 3.71	6.51 ± 2.02	O=C(OCC1CCNCC1)N1CCC(F)(CNC2CC2c2ccc(-c3cccc(C(F)(F)F)c3)nc2)CC1 (centres unmarked) [Example A117]
> 20	> 20	O=C(OCC1CCNCC1)N1CCC(F)(CNC2CC2c2ccc(C3CC3)s2)CC1 (centres unmarked) [Example A113, Piperidin-4-ylmethyl 4-(((2-(5-cyclopropylthien-2-yl)cyclopropyl)amino)methyl)-4-fluoropiperidine-1-carboxylate]
> 20	11 ± 0.978	O=C(OCC1CCNCC1)N1CCC(F)(CNC2CC2c2ccc(-c3ccccc3)nc2)CC1 (centres unmarked) [Example A115, Piperidin-4-ylmethyl 4-fluoro-4-(((2-(6-phenylpyridin-3-yl)cyclopropyl)amino)methyl)piperidine-1-carboxylate]
> 20	0.064 ± 0.026	FC1(CN[C@@H]2C[C@H]2c2ccccc2)CCN(Cc2ccsc2)CC1 (relative stereo) [Example A98, N-((4-Fluoro-1-(thiophen-3-ylmethyl)piperidin-4-yl)methyl)-trans-2-phenylcyclopropylamine]

Further lines, the molecule ahead of its results:

Structure (SMILES)	IC50 [1] [µM]	IC50 [2] [µM]
FC1(CN[C@@H]2C[C@H]2c2ccccc2)CCN(CCCc2ccccc2)CC1 (relative stereo) [Example A12, N-((4-fluoro-1-(3-phenylpropyl)piperidin-4-yl)methyl)-trans-2-phenylcyclopropylamine]	> 20	0.96
O=C(CCC1CCCCC1)N1CCC(F)(CN[C@@H]2C[C@H]2c2ccccc2)CC1 (relative stereo) [Example A10, 3-cyclohexyl-1-(4-fluoro-4-(((trans-2-phenylcyclopropyl)amino)methyl)piperidin-1-yl)-1-propanone]	> 20	0.6 ± 1.09
O=S(=O)(CC1CCNCC1)N1CCC(F)(CNC2CC2c2ccccc2)CC1 (stereo not drawn) [Example A92, N-((4-Fluoro-1-(piperidin-4-ylmethyl)sulfonyl)piperidin-4-yl)methyl)-trans-2-phenylcyclopropylamine]	> 20	0.132 ± 0.055
O=C(Oc1ccccc1)N1CCC(F)(CNC2CC2c2ccccc2)CC1 (stereo not drawn) [Example A9, Phenyl 4-Fluoro-4-((trans-2-phenylcyclopropyl)amino)methyl)piperidine-1-carboxylate]	> 20	1.16 ± 0.15
FC1(CN[C@@H]2C[C@H]2c2ccccc2)CCN(Cc2ccccc2)CC1 (relative stereo) [Example A6, N-((1-Benzyl-4-fluoropiperidin-4-yl)methyl)-trans-2-phenylcyclopropylamine]	> 20	1.02 ± 2.44
CS(=O)(=O)N1CCC(F)(CN[C@@H]2C[C@H]2c2ccccc2)CC1 (relative stereo) [Example A93, N-((4-Fluoro-1-(methylsulfonyl)piperidin-4-yl)methyl)-trans-2-phenylcyclopropylamine]	> 20	0.239 ± 0.004
CS(=O)(=O)c1ccc(CN2CCC(F)(CN[C@@H]3C[C@H]3c3ccccc3)CC2)cc1 (relative stereo) [Example A16, N-((4-Fluoro-1-(4-(methylsulfonyl)benzyl)piperidin-4-yl)methyl)-trans-2-phenylcyclopropylamine]	> 20	–
O=C(O)c1ccc(CN2CCC(COC(=O)N3CCC(F)(CNC4CC4c4ccccc4)CC3)CC2)cc1 (centres unmarked) [Example A91]	> 20	1.7 ± 0.83
CNC1CCC(F)(CNC2CC2c2ccccc2)CC1 (stereo not drawn) [Example A11, 4-fluoro-N-methyl-4-(((trans-2-phenylcyclopropyl)amino)methyl)cyclohexane-1-amine]	> 20	–
N#Cc1ccc(CN2CCC(F)(CN[C@@H]3C[C@H]3c3ccccc3)CC2)cc1 (relative stereo) [Example A96, 4-((4-Fluoro-4-(((trans-2-phenylcyclopropyl)amino)methyl)piperidin-1-yl)methyl)benzonitrile]	> 20	0.159 ± 0.074
O=C(CCc1ccccc1)N1CCC(F)(CN[C@@H]2C[C@H]2c2ccccc2)CC1 (relative stereo) [Example A8, 1-(4-fluoro-4-(((trans-2-phenylcyclopropyl)amino)methyl)piperidin-1-yl)-3-phenyl-1-propanone]	> 20	0.27 ± 0.37
CN1CCC(F)(CN[C@@H]2C[C@H]2c2ccccc2)CC1 (relative stereo) [Example A15, N-((4-Fluoro-1-methylpiperidin-4-yl)methyl)-trans-2-phenylcyclopropylamine]	> 20	0.33 ± 0.16
FC1(CN[C@@H]2C[C@H]2c2ccccc2)CCN(CCCC2CCCCC2)CC1 (relative stereo) [Example A14, N-((1-(3-Cyclohexylpropyl)-4-fluoropiperidin-4-yl)methyl)-trans-2-phenylcyclopropylamine]	8.17 ± 0.35	13 ± 0.42
O=C(NC1CCC(F)(CNC2CC2c2ccccc2)CC1)OCc1ccccc1 (stereo not drawn) [Example A19, Benzyl 4-fluoro-4-((trans-2-phenylcyclopropyl)amino)methyl)cyclohexyl)carbamate]	> 20	2.57 ± 1.66
O=C(OCC1CCNCC1)N1CCC(F)(CN[C@H]2C[C@@H]2c2ccccc2)CC1 [(1S,2R)-A43]	> 20	0.96 ± 0.444
FC1(CN[C@@H]2C[C@H]2c2ccccc2)CCCCC1 (relative stereo) [Example A18, N-((1-Fluorocyclohexyl)methyl)-trans-2-phenylcyclopropylamine]	> 20	3 ± 5.19
O=C(OC1CCNCC1)N1CCC(F)(CN[C@@H]2C[C@H]2c2ccccc2)CC1 (relative stereo) [Example A95, Piperidin-4-yl 4-fluoro-4-(((trans-2-phenylcyclopropyl)amino)methyl)piperidine-1-carboxylate]	> 20	1.24 ± 0.844

Reference: US10836743B2, “Fluorinated cyclopropylamine compound, preparation method therefor, pharmaceutical composition thereof, and uses thereof” (SHANGHAI INSTITUTE OF MATERIA MEDICA, CHINESE ACADEMY OF …, priority 2016, dated 2020)
